Reference: patent publication US20150110814A1, “COMBINATION THERAPIES WITH PSMA LIGAND CONJUGATES” (PSMA Development Company, LLC, priority 2013, published 2015)
Square brackets hold non-standard residues; d marks the D form. Peptide text beside a SMILES is read from it. * marks the point of attachment. Dolaproine = CO[C@@H]([C@@H]1CCCN1)[C@@H](C)C(=O)O; Dil = CC[C@H](C)[C@H](NC)[C@@H](CC(=O)O)OC; X1 = C[C@@H](N*)[C@@H](O)c1ccccc1; NMeV = CN[C@H](C(=O)O)C(C)C

How the values were obtained:
[1] = tested on: PSMA expression on C4-2 cells; test: Flow cytometry of cell-surface PSMA expression; assay type: cell-based, human; parameters: cell-surface PSMA expression / PSMA expression on treated cells relative to untreated cells: dose or concentration left out as unconfirmed; conditions: for cell-surface PSMA expression: 7 days post-treatment
Protocol: (§1) For short-term treatments (≦7 days), cells were plated on 24-well plates (BD Falcon) overnight, at a density of 200,000 cells per 500 μL. The next day, wells were exchanged with 500 μL of fresh media that included inhibitor, and incubated at 37° C. until the indicated time point. For the long-term treatments (>7 days), cells were plated on T-25 flasks (BD Falcon) overnight, at a density of 500,000 cells per flask in 5 mL of media. 5 mL of fresh media with or without treatment was exchanged the next day. On weekly splits thereafter, cells were detached with Cell Dissociation solution (Sigma), washed with fresh media, counted using Vi-CELL XR (Beckman Coulter), and split into two T-25 flasks for continued culture with or without inhibitor. Prior to analysis, cells were detached, counted and suspended in PBS (PBS(−), without Ca/Mg, Life Technologies) containing 0.3% bovine serum albumin (BSA, Sigma) and 0.1% sodium azide (VWR). Cells (100,000 in 100 μL) were placed in round-bottom 96-well plates (Falcon) and incubated for 30 minutes at room temperature with 1 μg/mL of anti-PSMA mAb 3.9 conjugated to phycoerythrin (PE). Cells then were washed twice with 200 μL PBS/BSA/azide buffer and read using a FACSCalibur instrument (BD Biosciences). A mouse IgG2b-PE conjugate of irrelevant specificity (Abcam) was included as an isotype control.

C4-2 cells = test: Cell viability assay (CellTiter-Glo, inhibition of proliferation, Bliss synergy); assay type: cell-based, human; conditions: for activity when combined with PSMA ADC: C4-2 cells (FIG. 8)
Protocol: (§2) Cells were plated at a density of 1×10^3 cells in 25 μL in 384-well white-colored microplates (Perkin Elmer) and cultured overnight. The next day, cells were treated with 1 or 2 drugs in a total volume of 50 μL. Cultures were incubated at 37° C. for 7 days. Viability was assessed on days 0 and 7 using CellTiter-Glo (Promega) and an Analyst GT luminescence reader at 560 nm emission (Molecular Devices). The percent inhibition of proliferation was calculated as (Vu−Vt)/(Vu−V0)×100, where Vu, Vt and V0 represent the viability values for untreated cells on day 7, treated cells on day 7, and cells prior to treatment on day 0, respectively. […] Values of >100% reflect cytotoxic compounds or combinations, where Vt<V0.
(§3) Drug combinations were tested in 3 to 7 independent repeat cell viability assays unless otherwise indicated Inhibition data were fit to a four-parameter logistic equation using GraphPad Prism. […] Bliss differences were calculated by subtracting the predicted value (Fc) from the experimentally observed inhibition. Mean Bliss differences were calculated for each point in a matrix of drug-drug combinations, converted to percentages, and assessed for statistical significance from the null value of zero using two-sided t-tests with a significance level of 0.05. Statistical evaluations were not performed in cases where the fractional growth inhibition exceeded unity, since such values fall outside the Bliss framework. In addition, Bliss differences of less than 5% were considered to be of limited biological relevance and were excluded from synergy considerations.

LNCaP cells = test: as above; assay type: cell-based, human; conditions: for activity when combined with PSMA ADC: LNCaP cells (FIG. 8)
Protocol: as §2, §3

[2] = tested on: PSMA expression on LNCaP cells; test: Flow cytometry of cell-surface PSMA expression; assay type: cell-based, human; conditions: antiandrogens concentrations above 1 mM, 7 days post-treatment
Protocol: as §1

PSMA in C4-2 cells = test: Western blotting of total PSMA; assay type: cell-based, human; conditions: 7 days
Protocol: (§4) Cells (300,000) were incubated overnight in 6-well plates (BD Falcon) in 4 mL of 10% FBS RPMI1640 media prior to addition of inhibitors. Plates were incubated at 37° C. for an additional 7 days, washed once with 5 mL of cold PBS(−) and placed on ice. Cells were lysed with 130 μL of RIPA Lysis Buffer (Santa Cruz Biotechnology) and then centrifuged at 14,000×g for 10 minutes at 4° C. The supernatant was quantitated for protein concentration using a BCA kit (Pierce/Thermo), resolved under reducing conditions using NuPAGE Novex 4-12% Bis-Tris gels (Life Technologies), and transferred to nitrocellulose using the iBlot 7-Minute Blotting System (Life Technologies). Membranes were blocked using Odyssey Blocking Reagent (LI-COR Biosciences), incubated with primary and secondary antibodies, and visualized using an Odyssey infrared imager (LI-COR Biosciences).

PSMA in LNCaP cells = test: Western blotting of total PSMA; assay type: cell-based, human; conditions: 7 days, serial dilution of lysates
Protocol: as §4

[3] = tested on: metastatic, castration-resistant prostate cancer (mCRPC); conditions: subjects with mCRPC; cited from earlier work

Structure (SMILES)	activity when combined with PSMA ADC (C4-2 cells)	activity when combined with PSMA ADC (LNCaP cells)	effect on the activity of PSMA ADC (C4-2 cells; C4-2 cells)	single-agent antiproliferative effect (C4-2 cells; C4-2 cells, single agent)	single-agent antiproliferative effect (LNCaP cells; LNCaP cells, single agent)	other results
CO[C@H]1C[C@@H]2CC[C@@H](C)[C@@](O)(O2)C(=O)C(=O)N2CCCC[C@H]2C(=O)O[C@H]([C@H](C)C[C@@H]2CC[C@@H](O)[C@H](OC)C2)CC(=O)[C@H](C)/C=C(\C)[C@@H](O)[C@@H](OC)C(=O)[C@H](C)C[C@H](C)/C=C/C=C/C=C/1C [Rapamycin, rapamycin]						increase in PSMA expression ([1]; C4-2, low nanomolar concentrations, 7 days): > 2 fold
NC1(c2ccc(-c3nc4ccn5c(=O)[nH]nc5c4cc3-c3ccccc3)cc2)CCC1 [MK-2206]	additive to weakly synergistic activity	additive to weakly synergistic activity				
Cc1ccc(C(=O)N(CCCN)[C@@H](c2oc3cc(Cl)ccc3c(=O)c2Cc2ccccc2)C(C)C)cc1 [SB-743921]	additive to weakly synergistic activity	additive to weakly synergistic activity				
CNC(=O)c1ccc(N2C(=S)N(c3ccc(C#N)c(C(F)(F)F)c3)C(=O)C2(C)C)cc1F [Enzalutamide, enzalutamide]			significantly enhanced the activity of PSMA ADC	minimal antiproliferative effects	inhibited proliferation	cell-surface PSMA expression [2]: approximately doubled; cell-surface PSMA expression ([1]; C4-2): approximately doubled; cell-surface PSMA expression ([1]; C4-2, listed as enzalutamide): doubled; time for PSMA expression to return to baseline in the absence of drug ([1]; C4-2, after 3 weeks culture in enzalutamide): ≤ 7 days; PSMA expression on treated cells relative to untreated cells ([1]; C4-2, after 21 days): 4 fold; exposure time to maximal PSMA expression ([1]; FIG. 15, cell line not stated in legend): 3 to 4 weeks; PSMA upregulation (Western) (PSMA in C4-2 cells): upregulated PSMA to similar extents; magnitude of increase in PSMA (Western, semi-quantitative) (PSMA in LNCaP cells): approximately 5 fold
CC[C@H](C)[C@@H]([C@@H](CC(=O)N1CCC[C@H]1[C@H](OC)[C@@H](C)C(=O)N[C@H](C)[C@@H](O)c1ccccc1)OC)N(C)C(=O)[C@@H](NC(=O)[C@@H](NC)C(C)C)C(C)C [MMAE, monomethylauristatin norephedrine] (H-[NMeV]V[Dil][Dolaproine]-X1)						activity when paired with enzalutamide or abiraterone (C4-2 cells; C4-2 cells): additive to weakly synergistic activity; IC50 (C4-2 cells; C4-2 cells, single agent, 7 days): ~0.5 nM; activity when paired with enzalutamide or abiraterone (LNCaP cells; LNCaP cells): additive activity; IC50 (LNCaP cells; LNCaP cells, single agent, 7 days): ~0.5 nM
C[C@]12C=CC(=O)C=C1CC[C@@H]1[C@@H]2C(=O)C[C@@]2(C)[C@H]1CC[C@]2(O)C(=O)CO [Prednisone, prednisone]	additive to weakly synergistic activity	additive to weakly synergistic activity				
CO[C@H]1C(=O)[C@]2(C)[C@@H](OC)C[C@H]3OC[C@@]3(OC(C)=O)[C@H]2[C@H](OC(=O)c2ccccc2)[C@]2(O)C[C@H](OC(=O)[C@H](O)[C@@H](NC(=O)OC(C)(C)C)c3ccccc3)C(C)=C1C2(C)C [Jevtana, cabazitaxel]						survival benefit [3]: 2.4 month
CS(=O)(=O)N1CCN(Cc2cc3nc(-c4cccc5[nH]ncc45)nc(N4CCOCC4)c3s2)CC1 [GDC-0941, 2-(1H-indazol-4-yl)-6-(4-methanesulfonyl-piperazin-1-ylmethyl)-4-morpholin-4-yl-t hieno[3,2-d]pyrimidine]	additive to weakly synergistic activity	additive to weakly synergistic activity				
CNC(=O)c1ccc(N2C(=S)N(c3cnc(C#N)c(C(F)(F)F)c3)C(=O)C23CCC3)cc1F [ARN-509]			enhanced the activity of PSMA ADC	minimal antiproliferative effects	inhibited proliferation	
C[C@]12CC[C@H](O)CC1=CC[C@@H]1[C@@H]2CC[C@]2(C)C(n3cnc4ccccc43)=CC[C@@H]12 [TOK-001, galeterone]			enhanced the activity of PSMA ADC	minimal antiproliferative effects	inhibited proliferation	
